Assay results published in patent US20170001970A1, “Substituted benzohydrazide analogs as histone demethylase inhibitors” (University of Utah Research Foundation, priority 2015, published 2017).

Experiments:
LSD1 = biological target: T1, LSD1 (Homo sapiens, UniProt O60341); experiment: LSD1 histone demethylase assay (LSD1 Inhibitor Screening Assay Kit, Cayman); format: biochemical
T1 construct: purchased Cayman Chemical Company 700120
Experimental: Recombinant (expressed in baculovirus infected BTI insect cells) monoamine oxidase A and monoamine oxidase B (Catalog No. M7316 and M7441, respectively) were purchased from Sigma-Aldrich Co. LLC. (St. Louis, Mo.). MAO-Glo™ Assay Kit was purchased from Promega Corporation (Madison, Wis.). ATPlite™ Luminescence Assay System (e.g. Catalog No. V1401) was purchased from PerkinElmer Inc. (Waltham, Mass.).
Briefly, test compounds were diluted to 20× the desired test concentration in 100% DMSO and 2.5 μL of the diluted test sample was added to a black 384-well plate. The LSD1 enzyme stock was diluted 17-fold with assay buffer, and 40 μL of the diluted LSD1 enzyme was added to the appropriate wells. Substrate, consisting of horseradish peroxidase, dimethyl K4 peptide corresponding to the first 21 amino acids of the N-terminal tail of histone H3, and 10-acetyl-3,7-dihydroxyphenoxazine was then added to wells. Resorufin was analyzed on an Envision plate reader with an excitation wavelength of 530 nm and an emission wavelength of 595 nm.
IC50 values are determined using GraphPad Prism 5 software. The data were entered as an X-Y plot into the software as percent inhibition for each concentration of the drug. The concentration values of the drug were log transformed and the nonlinear regression was carried out using the “sigmoidal dose-response (variable slope)” option within the GraphPad software to model the data and calculate IC50 values.

Ewing's sarcoma cells = experiment: Cell viability with drug screening (CellTiter Glo, 72 hour); format: cell-based; conditions: SK-N-MC, SKESI, A673 cells
Experimental: A hemocytometer count is performed to determine cell concentration. In a 96-well tissue culture plate, 2000 cells per well are plated for each drug concentration. Generally, 10 wells are done in duplicate. Then, the plates are placed in incubator overnight to allow cells to adhere to the plate (If suspension cells, proceed to the next step). Then, the desired drug concentrations are added to each well (ex. Serial dilutions 10 uM, 3 uM, 1 uM, […] . . . etc.). Generally, each drug concentration is made at 10× in media and then 10 uL of drug is diluted in 90 uL of cells to get the final desired concentration. Then, the cells are incubated at 37° C. for 72 hours; after 72 hours, 100 uL of Promega Cell Titer Glo is added, and allowed incubation at room temperature for 10 minutes. Finally, the plates are read using the Envision software. Data analysis is performed using Graph Pad Prism 6.
FIGS. 5-7 depict graphs showing 72 hour time course cell viability of Ewing's sarcoma using CellTiter Glo (Promega). The tested compound was 10054Z and the control compound was 2606 which has the following structure: […]

LSD2 = biological target: T2, LSD2 (Homo sapiens, UniProt Q8NB78); experiment: LSD2 enzymatic activity (FIG. 4); format: biochemical
T2 sequence (Q8NB78 1-822): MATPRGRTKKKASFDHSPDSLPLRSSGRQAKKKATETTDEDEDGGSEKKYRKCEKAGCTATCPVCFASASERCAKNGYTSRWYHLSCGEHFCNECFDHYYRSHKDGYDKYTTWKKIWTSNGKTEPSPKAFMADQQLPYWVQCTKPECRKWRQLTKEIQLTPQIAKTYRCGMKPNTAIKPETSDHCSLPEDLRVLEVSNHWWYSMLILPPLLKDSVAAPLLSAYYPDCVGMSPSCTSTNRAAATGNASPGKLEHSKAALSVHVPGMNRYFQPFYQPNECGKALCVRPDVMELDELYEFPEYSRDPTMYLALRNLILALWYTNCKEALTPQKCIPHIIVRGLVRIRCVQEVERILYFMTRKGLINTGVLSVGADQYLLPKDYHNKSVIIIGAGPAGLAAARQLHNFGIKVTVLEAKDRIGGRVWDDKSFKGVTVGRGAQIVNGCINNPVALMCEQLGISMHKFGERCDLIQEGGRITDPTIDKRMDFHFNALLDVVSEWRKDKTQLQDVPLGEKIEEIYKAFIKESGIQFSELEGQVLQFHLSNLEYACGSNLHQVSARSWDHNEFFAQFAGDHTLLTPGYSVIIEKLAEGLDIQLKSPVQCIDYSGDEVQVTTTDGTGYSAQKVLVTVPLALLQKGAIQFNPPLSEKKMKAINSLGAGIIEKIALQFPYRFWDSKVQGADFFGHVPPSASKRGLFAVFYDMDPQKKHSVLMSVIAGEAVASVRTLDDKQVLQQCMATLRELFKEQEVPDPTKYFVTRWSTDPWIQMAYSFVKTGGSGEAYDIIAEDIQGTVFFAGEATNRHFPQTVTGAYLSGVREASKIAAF
From the text: Inhibition of LSD activity can be determined by a variety of both in vitro and in vivo methods known to one skilled in the art. For example, enzymatic activity can be determined in in vitro enzyme assay systems. In various aspects, the enzymatic activity of either LSD1 or LSD2 can be determined in a spectrophometric assay. Briefly, the assay is based on the multistep enzymatic reaction in which LSD1 or LSD2 first produces H2O2 during the demethylation of lysine 4 on a peptide corresponding to the first 21 amino acids of the N-terminal tail of histone H3. In the presence of horseradish peroxidase, the H2O2 produced reacts with ADHP to produce the highly fluorescent compound resorufin that can be analyzed with an excitation wavelength of 530-540 nm and an emission wavelength of 585-595 nm. The assay requires a source of LSD or LSD2 enzyme, either purified from natural sources (e.g. a tissue or cultured cells), isolated as a recombinantly expressed protein, or as a unpurified protein in whole cell extracts.

Row | SMILES | IC50 (LSD1) [µM] | viability of Ewing's sarcoma cells (in words, FIGS. 5-7) (Ewing's sarcoma cells) | inhibition of LSD2 activity (in words, FIG. 4) (LSD2)
1 | CCN1CCN(S(=O)(=O)c2cccc(C(=O)NN=C3CCc4c(Cl)cc(C)c(O)c43)c2)CC1 (stereo in doubt) [SP-10047_Z, (E)-N′-(4-chloro-7-hydroxy-6-methyl-2,3-dihydro-1H-Inden-1-ylidene)-3-((4-ethylpiperazin-1-yl)sulfonyl)benzohydrazide] | 0.426 |  | 
2 | CC1CC(=NNC(=O)c2cccc(S(=O)(=O)N3CCN(C)CC3)c2)c2c(O)ccc(Cl)c21 (stereo in doubt) [SP-10054_Z, (E)-N′-(4-chloro-7-hydroxy-3-methyl-2,3-dihydro-1H-inden-1-ylidene)-3-((4-methylpiperazin-1-yl)sulfonyl)benzohydrazide] | 0.029 | significantly decrease the viability | 
3 | CC1CC(=NNC(=O)c2cccc(S(=O)(=O)N3CCOCC3)c2)c2c(O)ccc(Cl)c21 (stereo in doubt) [SP-10055_Z, (E)-N′-(4-chloro-7-hydroxy-3-methyl-2,3-dihydro-1H-inden-1-ylidene)-3-(morpholinosulfonyl)benzohydrazide] | 0.418 |  | 
4 | CN1CCN(S(=O)(=O)c2cccc(C(=O)N/N=C3\CCc4c(Cl)ccc(O)c43)c2)CC1 [SP-10041_E, (E)-N′-(4-chloro-7-hydroxy-2,3-dihydro-1H-inden-1-ylidene)-3-((4-methylpiperazin-1-yl)sulfonyl)benzohydrazide] |  |  | significantly inhibit
5 | CN1CCN(S(=O)(=O)c2cccc(C(=O)N/N=C3/CCc4c(Cl)ccc(O)c43)c2)CC1 [SP-10041_Z] |  |  | significantly inhibit
6 | CN1CCN(S(=O)(=O)c2cccc(C(=O)N/N=C3\CCc4cc(O)cc(Cl)c43)c2)CC1 [SP-10043-E, (E)-N′-(7-chloro-5-hydroxy-2,3-dihydro-1H-inden-1-ylidene)-3-((4-methylpiperazin-1-yl)sulfonyl)benzohydrazide] | > 10 |  | 
7 | CN1CCN(S(=O)(=O)c2cccc(C(=O)N/N=C3/CCc4cc(O)cc(Cl)c43)c2)CC1 [SP-10043_Z] | > 10 |  | 
8 | CN1CCN(S(=O)(=O)c2cccc(C(=O)N/N=C3/CCc4c(F)ccc(O)c43)c2)CC1 [SP-10044_Z] | 0.403 |  | 
9 | Cc1cc(Cl)c2c(c1O)/C(=N/NC(=O)c1cccc(S(=O)(=O)N3CCC(C)CC3)c1)CC2 [SP-10046_E, (E)-N′-(4-chloro-7-hydroxy-6-methyl-2,3-dihydro-1H-inden-1-ylidene)-3-((4-methylpiperidin-1-yl)sulfonyl)benzohydrazide] | > 10 |  | 
10 | CC1C/C(=N\NC(=O)c2cccc(S(=O)(=O)N3CCOCC3)c2)c2c(O)ccc(Cl)c21 (stereo not drawn) [SP-10055_E, (E)-N′-(4-chloro-7-hydroxy-3-methyl-2,3-dihydro-1H-inden-1-ylidene)-3-(morpholinosulfonyl)benzohydrazide] | 0.078 |  | 
11 | Cc1ccc(Cl)c2c1/C(=N/NC(=O)c1cccc(S(=O)(=O)N3CCN(C)CC3)c1)CC2 [SP-10061_E, (E)-N′-(4-chloro-7-methyl-2,3-dihydro-1H-inden-1-ylidene)-3-((4-methylpiperazin-1-yl)sulfonyl)benzohydrazide] | 30.4 |  | 
